ChEMBL document CHEMBL1201862, “PubChem BioAssay data set” (2004)
Calls of active or inactive are those of the source.

How the values were obtained:
[1] = test system: H4; experiment: Luminescence Cell-Based Dose Response HTS to Identify Activators of 5'UTR Stem-Loop Driven Prion Protein mRNA Translation in H4 Neuroglioblastoma Cells. [Related pubchem assays: 1829 (Project Summary), 1814 (Primary HTS)]; type: functional; conditions: Homo sapiens
[2] = Luminescence Cell-Based Dose Response HTS to Identify Activators of Luciferase Translation or Activity in H4 […] Cells. [Related pubchem assays: 1829 (Project Summary), 1814 (Primary HTS)]; type: functional
[3] = molecular target: T1, Corticotropin-releasing factor receptor 2/Corticotropin-releasing factor-binding protein (Homo sapiens, UniProt P24387+Q13324); experiment: Dose Response confirmation of uHTS hits for small molecule antagonists of the CRF-binding protein and CRF-R2 receptor complex.; type: functional; conditions: read-out: IC50_Mean
T1 sequence (Q13324 whole entry): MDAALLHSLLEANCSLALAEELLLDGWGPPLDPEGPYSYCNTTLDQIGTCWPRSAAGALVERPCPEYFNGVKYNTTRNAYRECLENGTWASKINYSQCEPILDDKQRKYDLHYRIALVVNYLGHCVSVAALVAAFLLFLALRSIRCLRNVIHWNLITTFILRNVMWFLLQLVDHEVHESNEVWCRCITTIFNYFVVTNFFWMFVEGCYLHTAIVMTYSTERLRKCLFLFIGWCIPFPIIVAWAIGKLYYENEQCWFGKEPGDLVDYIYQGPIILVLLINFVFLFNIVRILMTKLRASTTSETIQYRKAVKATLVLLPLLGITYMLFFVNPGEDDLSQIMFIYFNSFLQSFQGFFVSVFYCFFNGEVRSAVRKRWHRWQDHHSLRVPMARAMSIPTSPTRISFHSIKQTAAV
T1 sequence (P24387 whole entry): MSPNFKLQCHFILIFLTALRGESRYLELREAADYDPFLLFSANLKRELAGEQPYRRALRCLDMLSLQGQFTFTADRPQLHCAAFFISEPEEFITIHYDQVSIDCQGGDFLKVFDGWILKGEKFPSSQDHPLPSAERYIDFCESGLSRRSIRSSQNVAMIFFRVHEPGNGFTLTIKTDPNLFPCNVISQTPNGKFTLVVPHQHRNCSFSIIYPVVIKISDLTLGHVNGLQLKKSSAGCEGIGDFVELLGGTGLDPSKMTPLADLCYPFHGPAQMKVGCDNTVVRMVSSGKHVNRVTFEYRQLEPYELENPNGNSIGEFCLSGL

[4] = molecular target: T1, Corticotropin-releasing factor receptor 2/Corticotropin-releasing factor-binding protein; experiment: activators of CRF receptor 2 with binding protein – uHTS hits, confirmation (AID 602473); type: functional; conditions: read-out: EC50_Mean
[5] = inhibitors of intracellular T. cruzi replication, confirmation, NIH3T3 host cells, beta-gal luminescence (AID 2044); type: functional, cell-based;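 further: intracellular parasites grown in NIH/3T3 mouse fibroblasts as host cells; luminescent beta-galactosidase reporter signal from transgenic T. cruzi replicating inside host cells; inhibitors lower the luminescence signal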
[6] = cytotoxicity toward NIH3T3 fibroblasts, dose response, counter-screen, cell-based, ATP luminescence, mouse fibroblasts (AID 2010); type: functional;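 further: cells exposed to compound for about 90 hours before reading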
[7] = HEp-2 cell cytotoxicity, dose response, cytotoxicity control for RSV inhibitor project, HTS (AID 2410); type: functional; conditions: human respiratory syncytial virus
[8] = molecular target: T2, Calpain-2 catalytic subunit (Sus scrofa, UniProt P43367); experiment: pig calpain II inhibitor potency, dose response, biochemical, fluorogenic peptide substrate (AID 1420); type: functional
T2 sequence (P43367 whole entry): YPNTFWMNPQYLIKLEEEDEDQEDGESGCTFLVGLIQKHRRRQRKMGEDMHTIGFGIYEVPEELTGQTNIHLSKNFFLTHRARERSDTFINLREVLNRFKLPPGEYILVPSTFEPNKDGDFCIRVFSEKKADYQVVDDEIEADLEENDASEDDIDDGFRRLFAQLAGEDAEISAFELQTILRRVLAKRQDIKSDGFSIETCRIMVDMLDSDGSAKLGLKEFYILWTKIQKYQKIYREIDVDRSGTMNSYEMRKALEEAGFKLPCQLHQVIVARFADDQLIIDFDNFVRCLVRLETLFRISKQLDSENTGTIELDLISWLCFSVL

[9] = THP-1 cell cytotoxicity, dose response, cytotoxicity control for non-replicating M. tuberculosis project (AID 489025); type: functional
[10] = molecular target: Induced myeloid leukemia cell differentiation protein Mcl-1 (Homo sapiens, UniProt Q07820); type: functional
Induced myeloid leukemia cell differentiation protein Mcl-1, sequence (Q07820 whole entry): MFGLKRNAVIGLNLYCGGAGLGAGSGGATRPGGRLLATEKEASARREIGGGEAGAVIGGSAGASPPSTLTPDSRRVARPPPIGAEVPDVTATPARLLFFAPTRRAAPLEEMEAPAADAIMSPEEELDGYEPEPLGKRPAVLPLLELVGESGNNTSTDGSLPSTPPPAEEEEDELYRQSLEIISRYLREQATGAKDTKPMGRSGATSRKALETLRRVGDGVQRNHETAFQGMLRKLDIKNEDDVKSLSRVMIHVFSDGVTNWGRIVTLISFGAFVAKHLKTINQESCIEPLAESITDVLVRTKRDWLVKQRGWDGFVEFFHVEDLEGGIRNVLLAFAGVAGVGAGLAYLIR

[11] = molecular target: T3, High affinity choline transporter 1 (Homo sapiens, UniProt Q9GZV3); experiment: CHT inhibitors, dose response, cell-based, 5-point CRC, membrane potential dye (AID 504840); type: functional
T3 sequence (Q9GZV3 whole entry): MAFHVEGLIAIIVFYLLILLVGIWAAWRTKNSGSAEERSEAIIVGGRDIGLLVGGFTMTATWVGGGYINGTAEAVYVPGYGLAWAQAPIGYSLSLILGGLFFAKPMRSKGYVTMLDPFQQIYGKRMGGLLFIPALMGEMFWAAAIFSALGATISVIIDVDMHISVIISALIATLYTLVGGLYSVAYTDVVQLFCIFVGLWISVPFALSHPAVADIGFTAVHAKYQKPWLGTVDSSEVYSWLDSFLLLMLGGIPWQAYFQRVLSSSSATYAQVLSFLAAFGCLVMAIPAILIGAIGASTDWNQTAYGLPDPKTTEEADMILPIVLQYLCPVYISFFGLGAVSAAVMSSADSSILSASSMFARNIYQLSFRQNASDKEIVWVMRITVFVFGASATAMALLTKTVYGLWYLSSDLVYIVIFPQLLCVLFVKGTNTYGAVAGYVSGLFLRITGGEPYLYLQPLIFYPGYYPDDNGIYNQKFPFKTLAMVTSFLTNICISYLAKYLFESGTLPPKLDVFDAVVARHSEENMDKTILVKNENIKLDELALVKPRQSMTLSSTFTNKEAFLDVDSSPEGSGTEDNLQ

[12] = molecular target: T4, Carboxy-terminal domain RNA polymerase II polypeptide A small phosphatase 1 (Homo sapiens, UniProt Q9GZU7); experiment: inhibitors of CTDSP1, concentration-response testing, biochemical assay, absorbance-based, actives from ultra-high-throughput screening (AID 540297); type: functional
T4 sequence (Q9GZU7 whole entry): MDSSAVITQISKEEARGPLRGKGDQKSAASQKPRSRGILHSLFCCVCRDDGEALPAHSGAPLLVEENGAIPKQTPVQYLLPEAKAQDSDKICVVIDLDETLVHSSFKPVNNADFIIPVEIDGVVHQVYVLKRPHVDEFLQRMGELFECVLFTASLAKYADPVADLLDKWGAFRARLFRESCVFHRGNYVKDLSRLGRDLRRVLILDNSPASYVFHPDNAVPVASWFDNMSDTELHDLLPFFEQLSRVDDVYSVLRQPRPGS

For `CC1CCC(NC(=O)Cn2ncc3ccccc32)CC1` (stereo not given), the EC50 [1] was > 120 µM (not active) and the EC50 [2] was > 120 µM (not active).
For `O=C(Cn1cnc([N+](=O)[O-])n1)NCCc1ccccc1`, the IC50 [3] was > 47.1 µM (inactive), the EC50 [4] was > 53 µM (inactive) and the EC50 [5] was 0.537 µM (active). For the same compound, the EC50 [6] was > 60 µM (not active).
With `COc1ccc(CNc2ccc([N+](=O)[O-])cc2C)cc1` the CC50 [7] was 35 µM (active) and the IC50 [8] was 3.81 µM (not active).
For `Cc1noc(NS(=O)(=O)c2ccc(NC(=O)c3ccc(N4C(=O)c5ccccc5C4=O)cc3)cc2)c1C`, the IC50 [8] was 4.9 µM (not active).
For `SC1=NC[C@H](Cc2cccc3ccccc23)N1CC1CCCCC1`, the IC50 [8] was > 50 µM (not active).
With `CC(C)(C)c1csc(NC(=O)c2ccccc2O)n1` the CC50 [9] was 38.7 µM (active).
For `O=C(CCC(=O)N1CCOc2ccccc21)NC1CCCCCC1`, the IC50 [3] was > 47.1 µM (inactive) and the EC50 [4] was > 53 µM (inactive).
With `CN1C(=O)c2ccc(C(=O)NCc3ccc4c(c3)OCO4)cc2C1=O` the IC50 [8] was 23.2 µM (not active).
For `Cc1ccc(-c2cc(C(=O)NCCCn3ccnc3)c3cc(Br)ccc3n2)o1`, the IC50 [10] was 3.07 µM (not active) and the IC50 [11] was 11.5 µM (active).
With `CCCCc1ccc(NC(=O)C2CCCO2)cc1` (stereo not given) the IC50 [8] was 13.4 µM (not active).
For `N#C/C(=C/c1ccc(-c2ccc(C(=O)O)c(Cl)c2)o1)C(=O)NCC1CCCO1` (stereo not given), the IC50 [12] was 33.2 µM (active).
In the case of `O=C(CCN1C(=O)/C(=C/c2ccc(F)cc2)SC1=S)Nc1cc([N+](=O)[O-])ccc1O`, the IC50 [12] is reported as 7.68 µM (active).
With `O=C(C1CC1)N1CCc2cc(Br)cc(S(=O)(=O)NC3CCCCC3)c21` the IC50 [8] was > 50 µM (not active).
